Test results as given in US20060063759A1, “Tricyclic steroid hormone nuclear receptor modulators” (priority 2002, published 2006).

Columns and labels:
[1] = biological target: T1, human MR (Homo sapiens, UniProt P08235); test: Mineralocorticoid Receptor Binding Assay ([3H]-aldosterone); conditions: [3H]-aldosterone binding, human MR expressed in Sf9 cells; read-out: MR Ki
T1 construct: The full length human MR gene is cloned from a human kidney or human brain cDNA library; His tag from the pAcHLT vector (own knowledge); made in house; host or cells: Sf9 insect cells (baculovirus, pAcHLT transfer vector)
T1 sequence (P08235 1-984): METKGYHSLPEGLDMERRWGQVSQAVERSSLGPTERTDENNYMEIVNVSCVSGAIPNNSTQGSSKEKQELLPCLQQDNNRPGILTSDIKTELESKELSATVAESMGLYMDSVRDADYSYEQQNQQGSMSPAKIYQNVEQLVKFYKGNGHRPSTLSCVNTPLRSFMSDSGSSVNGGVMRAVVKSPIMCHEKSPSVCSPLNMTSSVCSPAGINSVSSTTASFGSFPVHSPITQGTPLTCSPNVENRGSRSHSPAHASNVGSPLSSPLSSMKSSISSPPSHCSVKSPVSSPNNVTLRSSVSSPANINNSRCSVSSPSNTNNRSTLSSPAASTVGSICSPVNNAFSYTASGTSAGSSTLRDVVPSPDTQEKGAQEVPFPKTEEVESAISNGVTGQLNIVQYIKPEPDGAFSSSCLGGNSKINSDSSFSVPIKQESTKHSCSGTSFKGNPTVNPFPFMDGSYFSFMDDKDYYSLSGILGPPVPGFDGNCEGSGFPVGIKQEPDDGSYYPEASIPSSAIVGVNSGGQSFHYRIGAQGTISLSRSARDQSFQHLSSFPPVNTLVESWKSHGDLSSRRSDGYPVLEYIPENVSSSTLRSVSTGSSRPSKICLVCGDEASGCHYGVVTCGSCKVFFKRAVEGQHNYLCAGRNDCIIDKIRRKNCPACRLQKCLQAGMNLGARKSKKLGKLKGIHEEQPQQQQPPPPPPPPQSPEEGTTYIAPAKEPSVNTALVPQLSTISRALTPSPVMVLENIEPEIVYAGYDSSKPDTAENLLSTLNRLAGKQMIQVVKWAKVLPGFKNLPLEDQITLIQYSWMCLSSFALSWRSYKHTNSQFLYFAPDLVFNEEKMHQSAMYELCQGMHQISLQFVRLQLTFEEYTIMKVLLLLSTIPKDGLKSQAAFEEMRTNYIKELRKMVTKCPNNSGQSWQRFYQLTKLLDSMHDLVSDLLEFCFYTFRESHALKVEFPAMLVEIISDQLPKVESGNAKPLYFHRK
Method in brief: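 Receptor source: freeze-thaw lysate of baculovirus-infected Sf9 cells carrying full-length human MR, 20-25 μg protein. Incubation ~16 h at 4 °C with shaking, pH 7.5 buffer containing 30 mM sodium molybdate and 10% glycerol.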

[2] = biological target: T2, glucocorticoid receptor (Homo sapiens, UniProt P04150); test: Glucocorticoid Receptor Binding Assay ([3H]-dexamethasone, A549 cell extract); conditions: [3H]-dexamethasone binding, read-out: GR Ki
T2 construct: containing 50-200 ug of A549 cell extract and 1.86 nM [^3H]-dexamethasone; host or cells: A549 human lung epithelial cells (sonicated cell extract)
T2 sequence (P04150 1-777): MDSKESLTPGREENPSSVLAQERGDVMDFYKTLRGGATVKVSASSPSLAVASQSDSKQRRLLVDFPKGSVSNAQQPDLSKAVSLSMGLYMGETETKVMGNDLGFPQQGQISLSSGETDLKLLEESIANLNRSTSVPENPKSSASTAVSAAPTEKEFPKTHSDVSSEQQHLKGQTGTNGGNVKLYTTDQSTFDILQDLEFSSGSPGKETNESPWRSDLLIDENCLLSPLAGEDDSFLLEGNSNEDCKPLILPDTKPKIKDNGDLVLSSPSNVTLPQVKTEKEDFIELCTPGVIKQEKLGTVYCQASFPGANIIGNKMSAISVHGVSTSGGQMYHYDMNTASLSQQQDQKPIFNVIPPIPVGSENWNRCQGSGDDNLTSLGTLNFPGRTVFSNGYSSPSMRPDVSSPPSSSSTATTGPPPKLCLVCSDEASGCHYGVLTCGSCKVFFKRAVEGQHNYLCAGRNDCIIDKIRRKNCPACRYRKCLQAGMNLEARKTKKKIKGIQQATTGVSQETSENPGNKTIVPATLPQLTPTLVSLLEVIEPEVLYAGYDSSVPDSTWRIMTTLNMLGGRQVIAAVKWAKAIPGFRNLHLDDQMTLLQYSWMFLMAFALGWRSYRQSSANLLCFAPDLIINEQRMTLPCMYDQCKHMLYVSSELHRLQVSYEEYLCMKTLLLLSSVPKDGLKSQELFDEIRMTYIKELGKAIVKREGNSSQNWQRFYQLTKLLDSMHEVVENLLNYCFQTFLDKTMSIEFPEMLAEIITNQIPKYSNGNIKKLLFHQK
Method in brief: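 Displacement of [3H]-dexamethasone (1.86 nM) from glucocorticoid receptor in sonicated A549 lung epithelial cell extracts, 16 h at 4 °C, pH 7.2 molybdate-containing buffer. Bound radioactivity was scintillation-counted after charcoal/dextran stripping of free ligand.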

| Compound | Ki [1] [nM] | Ki [2] [nM] |
| --- | --- | --- |
| Oc1cccc(C=C2c3ccc(O)cc3CCc3cc(O)ccc32)c1 [Example 194, 5-(3-Hydroxy-benzylidene)-10,11-dihydro-5H-dibenzo[a,d]cycloheptene-2,8-diol] | < 500 | < 500 |
| C/C(=C1\c2ccccc2CCc2c(F)cccc21)c1cccc(NS(C)(=O)=O)c1 [Example 787] | < 500 | < 500 |
| CS(=O)(=O)Nc1cccc(/C=C2/c3ccccc3CCc3cc(C#N)ccc32)c1 [Example 342] | < 500 | < 500 |
| CS(=O)(=O)Nc1cccc(/C=C2/c3ccccc3CCc3ccc(S(C)(=O)=O)cc32)c1 [Example 323] | < 500 | < 500 |
| Nc1n[nH]c2cc(C=C3c4ccccc4CCc4ccccc43)ccc12 [Example 444] | < 500 | < 500 |
| Oc1cccc(CC2c3ccccc3CCc3c(F)cccc32)c1 (centres unmarked) [Example 186, 3-(1-Fluoro-10,11-dihydro-5H-dibenzo[a,d]cyclohepten-5-ylmethyl)-phenol] | < 500 | < 500 |
| CCS(=O)(=O)Nc1cccc(C=C2c3ccccc3CCc3c(Cl)cccc32)c1 [Example 208(b), Ethanesulfonic acid [3-(1-chloro-10,11-dihydro-dibenzo[a,d]cyclohepten-5-ylidenemethyl)-phenyl]-amide] | < 500 | < 500 |
| CCC(=C1c2ccccc2CCc2cc(C)ccc21)c1cccc(NS(C)(=O)=O)c1 [Example 774] | < 500 | < 500 |
| CS(=O)(=O)Nc1cccc(/C=C2/c3ccccc3CCc3sccc32)c1 [Example 476] | < 500 | < 500 |
| CS(=O)(=O)Nc1cccc(/C=C2\c3ccccc3CSc3ccccc32)c1 [Example 262, N-[3-(11H-10-Thia-dibenzo[a,d]cyclohepten-5-ylidenemethyl)-phenyl]-methanesulfonamide] | < 500 | < 500 |
| CC(=O)Nc1cccc(C=C2c3ccccc3CCc3ccccc32)c1 [Example 114, N-[3-(10,11-Dihydro-dibenzo[a,d]cyclohepten-5-ylidenemethyl)-phenyl]-acetamide] | < 500 | < 500 |
| COc1ccc2c(c1OC)CSc1ccccc1/C2=C\c1cccc(NS(C)(=O)=O)c1 [Example 685] | < 500 | < 500 |
| Cc1ccc2c(c1)SCc1ccccc1/C2=C\c1cccc(NS(C)(=O)=O)c1 [Example 749] | < 500 | < 500 |
| CS(=O)(=O)Nc1cccc(/C=C2/c3ccccc3CCc3cc(C(F)F)ccc32)c1 [Example 374] | < 500 | < 500 |
| CC(=O)Nc1ccc2c(c1)CCc1ccccc1C2=Cc1cccc(NS(C)(=O)=O)c1 [Example 405] | < 500 | < 500 |
| C/C(=C1/c2ccccc2CCc2cc(Cl)ccc21)c1cccc(NS(C)(=O)=O)c1 [Example 794] | < 500 | < 500 |
| Cc1cccc2c1CCc1ccccc1C2=Cc1ccc(NS(C)(=O)=O)cc1 [Example 307] | < 500 | < 1000 |
| C/C(=C1/c2ccccc2COc2cc(F)ccc21)c1ccc2[nH]c(=O)[nH]c2c1 [Example 838] | < 500 | < 500 |
| COc1ccc2c(c1)CCc1ccccc1C2=Cc1ccc(N)cc1 (mixture of isomers) [Example 166, 4-(2-Methoxy-10,11-dihydro-dibenzo[a,d]cyclohepten-5-ylidenemethyl)-phenylamine] | < 500 | < 10000 |
| Fc1ccc2c(c1)OCc1ccccc1C2=Cc1cccc(C(F)F)c1 [Example 640] | < 500 | < 500 |

| Compound | Ki [1] [nM] | Ki [2] [nM] |
| --- | --- | --- |
| COc1ccc2c(c1)COc1ccccc1/C2=C\c1cccc(NS(C)(=O)=O)c1 [Example 705] | < 500 | < 500 |
| CS(=O)(=O)Nc1cc(F)cc(/C=C2\c3ccc(Cl)cc3CCc3cccnc32)c1 [Example 548] | < 500 | < 10000 |
| O=c1[nH]c2ccc(/C=C3/c4ccccc4CCc4cc(F)ccc43)cc2[nH]1 [Example 449] | < 500 | < 10000 |
| Oc1cccc(C=C2c3ccccc3CCc3cc(F)ccc32)c1 [200(a), 3-(2-Fluoro-10,11-dihydro-dibenzo[a,d]cyclohepten-5-ylidenemethyl)-phenol] | < 500 | < 500 |
| CC(=O)Nc1nc(C)c(S(=O)(=O)Nc2cccc(C=C3c4ccccc4CCc4cc(Cl)ccc43)c2)s1 [Example 297] | < 500 | < 10000 |
| O=C1Nc2ccc(Cl)cc2C(=Cc2cccc(Cl)c2)c2ccccc21 (mixture of isomers) [Example 655] | < 500 | < 500 |
| Cc1ccc2c(c1)CCc1ccccc1C2=Cc1cccc(NS(C)(=O)=O)c1 [Example 302] | < 500 | < 500 |
| C/C(=C1\c2ccccc2CCc2cc(Cl)ccc21)c1cccc(NS(C)(=O)=O)c1 [Example 793] | < 500 | < 500 |
| O=c1[nH]c2cc(/C=C3\c4ccccc4CCc4cc(F)ccc43)ccc2o1 [Example 451] | < 500 | < 10000 |
| Cc1cccc2c1SCc1ccccc1C2=Cc1cccc(NS(C)(=O)=O)c1 [Example 695] | < 500 | < 500 |
| CS(=O)(=O)Nc1cccc(/C=C2/c3cccnc3CCc3c(F)cccc32)c1 [Example 576] | < 500 | < 10000 |
| Cc1cccc2c1CCc1ccccc1/C2=C\c1cccc(NS(C)(=O)=O)c1 [Example 312] | < 500 | < 500 |
| CS(=O)(=O)Nc1cccc(/C=C2\c3ccccc3CCc3nc(N)sc32)c1 [Example 559] | < 500 | < 500 |
| CC/C(=C1\c2ccc(OC)cc2COc2ccccc21)c1cccc(NS(C)(=O)=O)c1 [Example 822] | < 500 | < 500 |
| O=c1[nH]c2ccc(C=C3c4ccccc4CCc4ccccc43)cc2[nH]1 [Example 223, 5-(10,11-Dihydro-dibenzo[a,d]cyclohepten-5-ylidenemethyl)-l,3-dihydro-benzoimidazol-2-one] | < 500 | < 10000 |
| N#Cc1ccc2c(n1)CCc1cc(F)ccc1/C2=C\c1ccc2[nH]c(=O)[nH]c2c1 [Example 591] | < 500 | < 10000 |
| CS(=O)(=O)Nc1cccc(C=C2c3ccc(F)cc3CCc3cc(F)ccc32)c1 [Example 360] | < 500 | < 1000 |
| Cn1c(=O)[nH]c2cc(/C=C3\c4ccccc4CCc4cc(F)ccc43)ccc21 [Example 462] | < 500 | < 1000 |
| CS(=O)(=O)Nc1ccc(C=C2c3ccccc3CCc3sccc32)cc1 [Example 495] | < 500 | < 500 |
| O=c1[nH]c2cc(/C=C3\c4ccccc4CCc4cc(F)ccc43)ccc2s1 [Example 469] | < 500 | < 500 |
